As a reminder, the GI50 is the concentration giving 50% growth inhibition. A lower GI50 goes with greater sensitivity of the cells.

The assay deals with A375-NRAS^Q61K cells. Kind of assay: CTGlo Cell Viability Assay, A375-NRAS^Q61K (A375.11) cells, 96 hours. The assay is classed as cell-based, human. Conditions: A375.11 (A375-NRAS^Q61K) cells; for Emax: lowest % viability achieved. The gist of the method:
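Viability as CellTiter-Glo ATP luminescence after 96 h compound exposure at 37 °C; A375.11 (BRAF V600E/NRAS Q61K) cells at 250/well, top final concentration 10 μM in half-log steps. Signal was background-corrected and set relative to DMSO controls. A 4-parameter logistic fit gave GI50 (50% crossing) and Emax.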

For the setting “Homo sapiens, 96 h”, `CO[C@@H]1CCN(S(=O)(=O)Nc2ccc(F)c(Oc3ccc4ncn(C5CC6(CCN(C7CCC(c8cc9c(cc8F)c(N8CCC(=O)NC8=O)nn9C)CC7)CC6)C5)c(=O)c4c3)c2C#N)C1` (single isomer, unassigned) [Compound 101] showed a GI50 of under 1 µM and an Emax of under 50%.

The compound `CO[C@H]1CCN(S(=O)(=O)Nc2ccc(F)c(Oc3ccc4ncn(C5CC6(CCN(C7CCC(c8cc9c(cc8F)c(N8CCC(=O)NC8=O)nn9C)CC7)CC6)C5)c(=O)c4c3)c2C#N)C1` (single isomer, unassigned) [Compound 103] gave a GI50 of over 10 µM. The Emax (Homo sapiens, 96 h) was 50 to 90%.

For the setting “Homo sapiens, 96 h”, `CO[C@@H]1CCN(S(=O)(=O)Nc2ccc(F)c(Oc3ccc4ncn([C@H]5COC6(CCN(C7CCC(c8ccc(NC9CCC(=O)NC9=O)cc8F)CC7)CC6)C5)c(=O)c4c3)c2C#N)C1` (single isomer, unassigned) [Compound 109] came in with a GI50 of under 1 µM and an Emax of under 50%.

With `CCN(C)S(=O)(=O)Nc1ccc(F)c(Oc2ccc3ncc(OC4CCN(C5CCC(c6ccc(NC7CCC(=O)NC7=O)cc6F)CC5)CC4)nc3c2)c1C#N` (single isomer, unassigned) [Compound 110, 7-[2-cyano-3-[[ethyl(methyl)sulfamoyl]amino]-6-fluoro-phenoxy]-2-[[1-[4-[4-[(2,6-dioxo-3-piperidyl)amino]-2-fluoro-phenyl]cyclohexyl]-4-piperidyl]oxy]quinoxaline], where the note is “Homo sapiens, 96 h”, the GI50 is over 10 µM and the Emax lay in the range of 50 to 90%.

In the case of `Cn1nc(N2CCC(=O)NC2=O)c2cc(F)c(C3CCC(N4CCC5(CC4)C[C@@H](n4cnc6ccc(Oc7c(F)ccc(NS(=O)(=O)C8CCCC8)c7C#N)cc6c4=O)CO5)CC3)cc21` (single isomer, unassigned) [Compound 113], under “Homo sapiens, 96 h”, the GI50 was under 1 µM and the Emax is under 50%.

Where the note is “Homo sapiens, 96 h”, `CO[C@H]1CCN(S(=O)(=O)Nc2ccc(F)c(Oc3ccc4ncn([C@H]5COC6(CCN(C7CCC(c8cc9c(cc8F)c(N8CCC(=O)NC8=O)nn9C)CC7)CC6)C5)c(=O)c4c3)c2C#N)C1` (single isomer, unassigned) [Compound 115] gave a GI50 of under 1 µM and an Emax of under 50%.

For the setting “Homo sapiens, 96 h”, `Cn1nc(N2CCC(=O)NC2=O)c2cc(F)c(C3CCC(N4CCC5(CC4)C[C@@H](n4cnc6ccc(Oc7c(F)ccc(NS(=O)(=O)N8CC[C@@H](F)C8)c7C#N)cc6c4=O)CO5)CC3)cc21` (single isomer, unassigned) [Compound 121] gave a GI50 of under 1 µM and an Emax of under 50%.

Under “Homo sapiens, 96 h”, `Cn1nc(N2CCC(=O)NC2=O)c2cc(F)c(C3CCC(N4CCC5(CC4)CC(n4cnc6ccc(Oc7c(F)ccc(NS(=O)(=O)N8CC[C@@H](F)C8)c7C#N)cc6c4=O)C5)CC3)cc21` (single isomer, unassigned) [Compound 122] gave a GI50 of under 1 µM and an Emax of under 50%.

Where the note is “Homo sapiens, 96 h”, `CCN(C)S(=O)(=O)Nc1ccc(F)c(Oc2ccc3ncn(CC4CCN(C5CCC(c6cc7c(cc6F)c(N6CCC(=O)NC6=O)nn7C)CC5)CC4)c(=O)c3c2)c1C#N` (single isomer, unassigned) [Compound 126, 6-[2-cyano-3-[[ethyl(methyl)sulfamoyl]amino]-6-fluoro-phenoxy]-3-[[1-[4-[3-(2,4-dioxohexahydropyrimidin-1-yl)-5-fluoro-1-methyl-indazol-6-yl]cyclohexyl]-4-piperidyl]methyl]-4-oxo-quinazoline] registered a concentration for 50% growth inhibition (GI50) of 1 to 10 µM and an Emax of 50 to 90%.

Under “Homo sapiens, 96 h”, `CCN(C)S(=O)(=O)Nc1ccc(F)c(Oc2ccc3ncn(C4CC5(CCN(C6CCC(c7cc8c(cc7F)c(N7CCC(=O)NC7=O)nn8C)CC6)CC5)C4)c(=O)c3c2)c1F` (single isomer, unassigned) [Compound 178, 3-[7-[4-[3-(2,4-dioxohexahydropyrimidin-1-yl)-5-fluoro-1-methyl-indazol-6-yl]cyclohexyl]-7-azaspiro[3.5]nonan-2-yl]-6-[3-[[ethyl(methyl)sulfamoyl]amino]-2,6-difluoro-phenoxy]-4-oxo-quinazoline] returned a GI50 of 1 to 10 µM and an Emax of 50 to 90%.
